Data reported in patent EP0332156B1, “Cephem compounds and processes for preparation thereof” (FUJISAWA PHARMACEUTICAL CO., LTD., priority 1988, dated 1989).

Tested on: E. coli 31
Experiment: In vitro antibacterial activity (MIC), two-fold agar-plate dilution method
Type: cell-based
Details: Escherichia coli; test strain E. coli 31; heart infusion agar; incubation at 37°C for 20 hours; inoculum 10^8 viable cells per ml
Method: In vitro antibacterial activity was determined by the two-fold agar-plate dilution method as described below. One loopful of an overnight culture of each test strain in Trypticase-soy broth (10^8 viable cells per ml) was streaked on heart infusion agar (HI-agar) containing graded concentrations of representative test compound, and the minimal inhibitory concentration (MIC) was expressed in terms of µg/mℓ after incubation at 37°C for 20 hours.

## CON=C(C(=O)NC1C(=O)N2C(C(=O)[O-])=C(C[n+]3ccc4n3CCN4)CSC12)c1csc(N)n1 (stereo not shown) [(1)]
  MIC: ≤ 0.025 µg/mL
